Biological target: rat mGluR5 (Rattus norvegicus (Rat), UniProt P31424)
Experiment: cell-based
Experimental: The cells were loaded with a Ca2+-sensitive fluorescent dye (e.g., Fluo-4), and the plates were washed and placed in the FDSS instrument. Test compound was applied to cells 3 seconds after baseline readings were taken. Cells were incubated with the test compounds for 140 seconds and then stimulated with an EC20 concentration of an mGluR5 agonist (e.g., glutamate, 3,5-dihydroxyphenylglycine, or quisqualate); 60-80 seconds later an EC80 concentration of agonist was added and readings taken for an additional 40 seconds. Data were collected at 1 Hz. […] Concentration response curves were generated using a four parameter logistical equation.
The above described assay was operated in two modes. In the first mode (utilizing a triple add protocol), a range of concentrations of the present compounds were added to cells, followed by two single fixed concentrations of agonist (EC20 followed by EC80). If a compound acted as a potentiator, an EC50 value for potentiation of the EC20 response and a maximum extent of potentiation by the compound at this concentration of agonist was determined by non-linear curve fitting. If a compound acted as an antagonist, an IC50 value for antagonism of the EC80 response and a maximum extent of antagonism by the compound at this concentration of agonist was determined by non-linear curve fitting. In the second mode (utilizing a double add protocol), several fixed concentrations of the present compounds were added to various wells on a plate, followed by a range of concentrations of agonist for each concentration of present compound; the EC50 values for the agonist at each concentration of compound were determined by nonlinear curve fitting. A decrease in the EC50 value of the agonist with increasing concentrations of the present compounds (a leftward shift of the agonist concentration-response curve) is an indication of the degree of mGluR5 positive allosteric modulation at a given concentration of the present compound. An increase in the EC50 value of the agonist with increasing concentrations of the present compounds (a rightward shift of the agonist concentration response curve) is an indication of the degree of mGluR5 antagonism at a given concentration of the present compound. The second mode also indicates whether the present compounds also affect the maximum response to mGluR5 to agonists.
The mGluR5 activity was determined using the metabotropic glutamate receptor activity assays in human embryonic kidney cells as described herein, wherein the human embryonic kidney cells were transfected with rat mGluR5. The mGluR5 activity data for some compounds are shown as the average of at least three experiments with the standard error in these cases. If no error is indicated for the mGluR5 activity, the values given represent the results from a single experiment or the average of two experiments.

Chain of rat mGluR5 (P31424 21-1203): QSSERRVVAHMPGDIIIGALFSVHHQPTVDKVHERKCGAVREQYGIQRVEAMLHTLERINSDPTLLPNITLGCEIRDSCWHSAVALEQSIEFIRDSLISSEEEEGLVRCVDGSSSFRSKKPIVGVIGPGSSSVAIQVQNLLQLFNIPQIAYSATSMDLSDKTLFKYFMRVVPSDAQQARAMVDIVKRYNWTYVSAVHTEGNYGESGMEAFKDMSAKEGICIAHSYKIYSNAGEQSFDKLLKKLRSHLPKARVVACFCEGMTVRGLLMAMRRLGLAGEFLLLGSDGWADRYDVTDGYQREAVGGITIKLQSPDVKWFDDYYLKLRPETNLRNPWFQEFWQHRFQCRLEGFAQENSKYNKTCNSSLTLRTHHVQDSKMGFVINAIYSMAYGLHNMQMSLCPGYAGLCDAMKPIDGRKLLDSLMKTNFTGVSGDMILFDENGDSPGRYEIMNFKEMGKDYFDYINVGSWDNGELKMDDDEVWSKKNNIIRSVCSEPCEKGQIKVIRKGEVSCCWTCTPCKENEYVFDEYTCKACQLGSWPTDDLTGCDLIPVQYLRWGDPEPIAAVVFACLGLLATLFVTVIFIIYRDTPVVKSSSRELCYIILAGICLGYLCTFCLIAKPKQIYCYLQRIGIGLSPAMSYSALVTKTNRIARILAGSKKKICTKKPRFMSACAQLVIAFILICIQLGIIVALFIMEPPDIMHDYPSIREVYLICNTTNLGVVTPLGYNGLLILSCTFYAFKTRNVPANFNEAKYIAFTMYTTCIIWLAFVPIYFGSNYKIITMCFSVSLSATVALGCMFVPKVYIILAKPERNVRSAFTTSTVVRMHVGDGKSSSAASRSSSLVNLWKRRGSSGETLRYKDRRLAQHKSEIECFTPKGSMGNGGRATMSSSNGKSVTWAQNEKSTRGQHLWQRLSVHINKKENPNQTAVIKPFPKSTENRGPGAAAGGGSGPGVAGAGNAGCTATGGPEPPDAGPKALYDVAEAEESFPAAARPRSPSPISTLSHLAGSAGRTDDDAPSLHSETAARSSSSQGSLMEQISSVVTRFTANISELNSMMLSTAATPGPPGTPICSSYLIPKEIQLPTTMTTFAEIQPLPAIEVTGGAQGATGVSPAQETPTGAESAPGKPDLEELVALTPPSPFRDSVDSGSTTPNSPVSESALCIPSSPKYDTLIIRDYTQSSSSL

SMILES | IC50 [nM]
O=C(Nc1ccc(F)cn1)c1cccc(Oc2cccnc2)c1 | 7450
Cc1csc(NC(=O)c2cccc(Oc3cccnc3)c2)n1 | 296
Cc1nsc(NC(=O)c2cccc(Oc3cccnc3)c2)n1 | > 30000
O=C(Nc1ccncn1)c1cccc(Oc2cccnc2)c1 | > 10000
N#Cc1csc(NC(=O)c2cccc(Oc3cccnc3)c2)n1 | 3590
O=C(Nc1nc(C(F)(F)F)cs1)c1cccc(Oc2cccnc2)c1 | > 30000
O=C(Nc1nccs1)c1cccc(Oc2cncnc2)c1 | 4550
O=C(Nc1ncccc1F)c1cc(Cl)cc(Oc2cncnc2)c1 | > 10000
O=C(Nc1ccc(F)c(CF)n1)c1cc(F)cc(Oc2cncnc2)c1 | 4540
COc1cccc(NC(=O)c2cc(F)cc(Oc3cncnc3)c2)n1 | 1060
Cc1nc(NC(=O)c2cc(F)cc(Oc3cncnc3)c2)sc1C(C)(C)C | > 10000
Cc1cncc(NC(=O)c2cc(F)cc(Oc3cncnc3)c2)c1 | > 10000
CN(c1cccnc1)c1cccc(C(=O)Nc2nccs2)c1 | 3560
CN(c1cccnc1)c1cc(F)cc(C(=O)Nc2nc(C#N)cs2)c1 | 2190
CN(c1cccnc1)c1cc(F)cc(C(=O)Nc2nccs2)c1 | 1250
Cc1csc(NC(=O)c2cc(F)cc(N(C)c3cccnc3)c2)n1 | 176
CN(c1cccnc1)c1cc(Cl)cc(C(=O)Nc2nccs2)c1 | 648
Cc1csc(NC(=O)c2cc(Cl)cc(N(C)c3cccnc3)c2)n1 | 49
CN(c1cncnc1)c1cc(F)cc(C(=O)Nc2cc(Cl)ccn2)c1 | 106
CN(c1cncnc1)c1cc(Cl)cc(C(=O)Nc2cc(Cl)ccn2)c1 | 262
CN(c1cncnc1)c1cc(F)cc(C(=O)Nc2ccc(Cl)cn2)c1 | > 30000
CN(c1cncnc1)c1cc(Cl)cc(C(=O)Nc2ccc(Cl)cn2)c1 | 929
Cc1cncc(NC(=O)c2cc(F)cc(N(C)c3cncnc3)c2)c1 | > 10000
Cc1cncc(NC(=O)c2cc(Cl)cc(N(C)c3cncnc3)c2)c1 | > 10000
Cc1cc(Oc2cncnc2)cc(C(=O)Nc2ccc(F)cn2)c1 | 22

Results, then the molecule that gave them:

IC50 [nM] | SMILES
65 | Cc1csc(NC(=O)c2cccc(Oc3cncnc3)c2)n1
6.5 | Cc1csc(NC(=O)c2cc(Cl)cc(Oc3cccnc3)c2)n1
5160 | O=C(Nc1nccs1)c1cc(F)cc(Oc2cncnc2)c1
52 | Cc1nc(NC(=O)c2cc(F)cc(Oc3cncnc3)c2)sc1F
> 30000 | O=C(Nc1ncc(F)cc1F)c1cc(Cl)cc(Oc2cncnc2)c1
87 | O=C(Nc1ccc(Cl)cn1)c1cc(Cl)cc(Oc2cncnc2)c1
2780 | Cc1cc(NC(=O)c2cc(Cl)cc(Oc3cncnc3)c2)ncc1F
198 | O=C(Nc1nc(C2CC2)cs1)c1cc(Cl)cc(Oc2cncnc2)c1
389 | O=C(Nc1nc(C(F)F)cs1)c1cc(Cl)cc(Oc2cncnc2)c1
4160 | CCc1ccnc(NC(=O)c2cc(Cl)cc(Oc3cncnc3)c2)c1
3700 | Cc1nc(NC(=O)c2cc(Cl)cc(Oc3cncnc3)c2)sc1Br
779 | O=C(Nc1ccc(F)c(C(F)F)n1)c1cc(Cl)cc(Oc2cncnc2)c1
360 | Cc1nc(NC(=O)c2cc(F)cc(Oc3cncnc3)c2)ccc1F
54 | Cc1nc(NC(=O)c2cc(Cl)cc(Oc3cncnc3)c2)ccc1F
345 | O=C(Nc1nc(C2CC2)cs1)c1cc(F)cc(Oc2cncnc2)c1
> 10000 | Cc1cncc(NC(=O)c2cc(Cl)cc(Oc3cncnc3)c2)c1
